Literature values, collected in US10948221B1 (priority 2020, dated 2021).

Test system: rat
Settings: in vivo

| Compound | LD50 (oral-rat; mg/kg) |
| --- | --- |
| O=N[O-].[Ag+] [AgNO2] | Toxic |
| CN.Cl [CH3NH3Cl] | 1600 mg/kg |
| N#C[O-].[K+] [KCNO] | 841 mg/kg |
| [K+].[O-][Cl+2]([O-])[O-] [KClO3] | 1870 mg/kg |
| [K+].[O-][Cl+3]([O-])([O-])[O-] [KClO4] | 100 mg/kg |
| O=N[O-].[K+] [KNO2] | 250 mg/kg |
| [Na+].[O-][Cl+2]([O-])[O-] [NaClO3] | 1200 mg/kg |
| [Na+].[O-][Cl+3]([O-])([O-])[O-] [NaClO4] | 2100 mg/kg |
| [F-].[Na+] [NaF] | 52 mg/kg |
| O=N[O-].[Na+] [NaNO2] | 180 mg/kg |
| AgNO3 | Toxic |
| BaCl2•2H2O | 118 mg/kg |
| K2SO4 [Solute K2SO4] | 6600 mg/kg |
| KIO3 | 136 mg/kg |
| KMnO4 | 1090 mg/kg |
| MgSO4•7H2O | 2840 mg/kg |
| NH4NO3 | 2217 mg/kg |
| Na3PO4 | 7400 mg/kg |
